Data as given in ChEMBL document CHEMBL3046775, “Synthesis and evaluation of 7-substituted-3,4-dihydrobenzo[f][1,4]oxazepin-5(2H)-ones as anticonvulsant and hypnotic agents” (Med Chem Res, 2011).
Calls of active or inactive are those of the source. No cut-off for these calls is given here.

Legend:
[1] = tested on: Mus musculus; assay: Neurotoxicity against Mus musculus (mouse) at 300 mg/kg, ip measured at 4 hr by rotarod test; format: toxicity, organism-based; set-up: dose 300 mg/kg, route intraperitoneal; conditions: in vivo
[2] = tested on: Mus musculus; assay: Neurotoxicity against Mus musculus (mouse) at 300 mg/kg, ip measured at 0.5 hr by rotarod test; format: toxicity, organism-based; set-up: dose 300 mg/kg, route intraperitoneal; conditions: in vivo
[3] = tested on: Mus musculus; assay: Anticonvulsant activity in Mus musculus (mouse) assessed as protection against maximal electroshock-induced seizures at 300 mg/kg, ip administered 30 min prior to electroshock-challenge measured at 4 hr; format: functional, organism-based; set-up: dose 300 mg/kg
[4] = tested on: Mus musculus; assay: Anticonvulsant activity in Mus musculus (mouse) assessed as protection against maximal electroshock-induced seizures at 300 mg/kg, ip administered 30 min prior to electroshock-challenge measured at 0.5 hr; format: functional, organism-based; set-up: dose 300 mg/kg
[5] = tested on: Mus musculus; assay: Neurotoxicity against Mus musculus (mouse) at 100 mg/kg, ip measured at 4 hr by rotarod test; format: toxicity, organism-based; set-up: dose 100 mg/kg, route intraperitoneal; conditions: in vivo
[6] = tested on: Mus musculus; assay: Neurotoxicity against Mus musculus (mouse) at 100 mg/kg, ip measured at 0.5 hr by rotarod test; format: toxicity, organism-based; set-up: dose 100 mg/kg, route intraperitoneal; conditions: in vivo
[7] = tested on: Mus musculus; assay: Anticonvulsant activity in Mus musculus (mouse) assessed as protection against maximal electroshock-induced seizures at 100 mg/kg, ip administered 30 min prior to electroshock-challenge measured at 4 hr; format: functional, organism-based; set-up: dose 100 mg/kg
[8] = tested on: Mus musculus; assay: Anticonvulsant activity in Mus musculus (mouse) assessed as protection against maximal electroshock-induced seizures at 100 mg/kg, ip administered 30 min prior to electroshock-challenge measured at 0.5 hr; format: functional, organism-based; set-up: dose 100 mg/kg
[9] = Protective index, ratio of TD50 for neurotoxicity to ED50 for anticonvulsant activity in mouse; format: toxicity, organism-based; conditions: in vivo, read-out: Ratio TD50/ED50
[10] = Neurotoxicity against ip dosed Mus musculus (mouse) by rotarod test; format: toxicity, organism-based; conditions: in vivo
[11] = tested on: Mus musculus; assay: Anticonvulsant activity in ip dosed Mus musculus (mouse) assessed as protection against maximal electroshock-induced seizures administered 30 min prior to electroshock-challenge measured at 4 hr; format: functional
[12] = tested on: Mus musculus; assay: Hypnotic activity in Mus musculus Kunming (mouse) assessed as increase in phenobarbital-induced sleep duration at 10 mg/kg, ip administered 30 min prior to phenobarbital-induction; format: functional, organism-based; set-up: dose 10 mg/kg
[13] = tested on: Mus musculus; assay: Hypnotic activity in ip dosed Mus musculus Kunming (mouse) assessed as increase in phenobarbital-induced sleep duration administered 30 min prior to phenobarbital-induction; format: functional, organism-based
[14] = tested on: Mus musculus; assay: Hypnotic activity in Mus musculus Kunming (mouse) assessed as increase in phenobarbital-induced sleep duration at 60 mg/kg, ip administered 30 min prior to phenobarbital-induction (reference value: 20.9 +/- 2.31 min); format: functional; conditions: route intraperitoneal
[15] = tested on: Mus musculus; assay: Hypnotic activity in Mus musculus Kunming (mouse) assessed as increase in phenobarbital-induced sleep duration at 30 mg/kg, ip administered 30 min prior to phenobarbital-induction; format: functional, organism-based; set-up: dose 30 mg/kg
[16] = tested on: Mus musculus; assay: Anticonvulsant activity in Mus musculus (mouse) assessed as protection against maximal electroshock-induced seizures at 30 mg/kg, ip administered 30 min prior to electroshock-challenge measured at 4 hr; format: functional, organism-based; set-up: dose 30 mg/kg
[17] = tested on: Mus musculus; assay: Anticonvulsant activity in Mus musculus (mouse) assessed as protection against maximal electroshock-induced seizures at 30 mg/kg, ip administered 30 min prior to electroshock-challenge measured at 0.5 hr; format: functional, organism-based; set-up: dose 30 mg/kg
[18] = tested on: Mus musculus; assay: Hypnotic activity in Mus musculus Kunming (mouse) assessed as increase in phenobarbital-induced sleep duration at 60 mg/kg, ip administered 30 min prior to phenobarbital-induction; format: functional, organism-based; set-up: dose 60 mg/kg

Row | SMILES | Activity [5] | Activity [6] | Activity [7] | Activity [8] | selectivity ratio [9] | TD50 [10] | ED50 [11] | other results
1 | CCCCCCCCCCCCOc1ccc2c(c1)C(=O)NCCO2 | – | – | – | – | – | – | – | Activity [1]: Non-toxic; Activity [2]: Toxic; Activity [3]: inactive; Activity [4]: Active
2 | O=C1NCCOc2ccc(OCc3c(Cl)cccc3Cl)cc21 | Non-toxic | Toxic | inactive | inactive | – | – | – | –
3 | CCCOc1ccc2c(c1)C(=O)NCCO2 | Non-toxic | Toxic | inactive | Active | 2.2 | 170 mg/kg | 78.3 mg/kg | –
4 | O=C1NCCOc2ccc(OCc3ccccc3Cl)cc21 | – | – | – | – | – | – | – | Activity [1]: Non-toxic; Activity [2]: Toxic; Activity [3]: inactive; Activity [4]: Active
5 | COc1ccc(COc2ccc3c(c2)C(=O)NCCO3)cc1 | Non-toxic | Non-toxic | inactive | inactive | – | – | – | –
6 | CCCCCCCCOc1ccc2c(c1)C(=O)NCCO2 | Non-toxic | Toxic | inactive | Active | – | – | – | –
7 | CCOc1ccc2c(c1)C(=O)NCCO2 | Non-toxic | Non-toxic | inactive | inactive | – | – | – | –
8 | Cc1ccc(COc2ccc3c(c2)C(=O)NCCO3)cc1 | Non-toxic | Toxic | inactive | inactive | – | – | – | –
9 | CCCCOc1ccc2c(c1)C(=O)NCCO2 | Non-toxic | Toxic | Active | Active | – | – | – | –
10 | CCCCCCCOc1ccc2c(c1)C(=O)NCCO2 | Non-toxic | Toxic | – | – | 2.5 | 47.3 mg/kg | 19 mg/kg | Activity [12]: inactive; Activity [13]: Dose-dependent effect; Time [14]: 45.7 min; Activity [15]: Active; Activity [16]: inactive; Activity [17]: Active
11 | CCC1(c2ccccc2)C(=O)NC(=O)NC1=O [PHENOBARBITAL] | – | – | – | – | – | – | 21.8 mg/kg | –
12 | O=C1NCCOc2ccc(OCc3cccc(Cl)c3)cc21 | Non-toxic | Toxic | inactive | Active | – | – | – | –
13 | CCCCCCOc1ccc2c(c1)C(=O)NCCO2 | Non-toxic | Toxic | Active | Active | 2.2 | 106 mg/kg | 47.3 mg/kg | –
14 | O=C1NCCOc2ccc(OCc3ccc(Cl)cc3)cc21 | Non-toxic | Toxic | inactive | inactive | – | – | – | –
15 | O=C1CCc2cc(OCc3ccccc3)ccc2N1 | – | – | – | – | – | > 300 mg/kg | – | –
16 | NC(=O)N1c2ccccc2C=Cc2ccccc21 [CARBAMAZEPINE] | – | – | – | – | 6.4 | – | – | –
17 | O=C1NCCOc2ccc(OCc3ccccc3Br)cc21 | Non-toxic | Toxic | inactive | inactive | – | – | – | –
18 | O=C1NCCOc2ccc(OCc3ccc(Br)cc3)cc21 | – | – | – | – | – | – | – | Activity [1]: Non-toxic; Activity [2]: Toxic; Activity [3]: inactive; Activity [4]: Active
19 | O=C1NCCOc2ccc(OCc3ccccc3F)cc21 | Non-toxic | Toxic | inactive | Active | 1.2 | 52.8 mg/kg | 45.6 mg/kg | –
20 | COc1ccc(COc2ccc3c(c2)C(=O)NCCO3)cc1OC | Non-toxic | Toxic | inactive | inactive | – | – | – | –
21 | CCCCCOc1ccc2c(c1)C(=O)NCCO2 | Non-toxic | Toxic | inactive | Active | 1.9 | 106 mg/kg | 56.8 mg/kg | –
22 | O=C1NCCOc2ccc(OCc3ccc(F)cc3)cc21 | – | – | – | – | – | – | – | Activity [1]: Non-toxic; Activity [2]: Toxic; Activity [3]: Active; Activity [4]: Active
23 | O=C1NCCOc2ccc(OCc3ccccc3)cc21 | Non-toxic | Toxic | inactive | Active | 1 | 76.2 mg/kg | 73.1 mg/kg | –
24 | CN1CCN(C(=O)OC2c3nccnc3C(=O)N2c2ccc(Cl)cn2)CC1 (stereo not drawn) | – | – | – | – | – | – | – | Activity [18]: Active
25 | O=C1NCCOc2ccc(OCc3cccc(F)c3)cc21 | Non-toxic | Toxic | inactive | Active | 1 | 73.1 mg/kg | 73.1 mg/kg | –
